How the values were obtained:
Type in all cases: physicochemical
[1] = Gas (ozone) resistance of the printed images; conditions: grade of color difference ΔE; ink with 6 portions dye on glossy photo paper; 40 ppm ozone, 60% RH, 24° C.
Description: Prepare the ink composition of Table 8 with the product obtained in Embodiment 1-11 as the coloring agent, and filter the ink composition with 0.45 μm membrane filter to obtain the magenta ink composition of the present invention. Add ion exchange water and triethanolamine to adjust the pH value of the ink composition to 8-10 and the weight to 100 portions. By the same methods, prepare ink compositions with control sulfonic-group-free anthrone dyes Dye1 and Dye2, hydrolytic derivatives of commercial dye C.I. reactive red 180 (reactive red 180 for short) and C.I. direct red 227 for comparison. Use an ink-jet printer (Epson 270 manufactured by Epson Company), glossy photo paper (Epson) and the above described ink compositions for ink-jet printing. (2) Gas Resistance of the Printed Images Place the printed images in the Ozone Weathering Test Chamber (manufactured by China Surui Company) at 60% RH, 24° C. and 40 ppm ozone. Calculated the color difference (ΔE) before and after the test by the same method as described in (1) above and evaluate it in 3 grades based on the following benchmark: • ΔE<10 ∘ • ΔE<20 Δ • ΔE>20 x

[2] = Wet resistance of the printed images; parameters: key: No bleeding ∘; Slight bleeding Δ; Notable bleeding x; conditions: bleeding judged by bare eyes; 50° C., 90% RH, 168 h
Description: (§1) Prepare the ink composition of Table 8 with the product obtained in Embodiment 1-11 as the coloring agent, and filter the ink composition with 0.45 μm membrane filter to obtain the magenta ink composition of the present invention. Add ion exchange water and triethanolamine to adjust the pH value of the ink composition to 8-10 and the weight to 100 portions. By the same methods, prepare ink compositions with control sulfonic-group-free anthrone dyes Dye1 and Dye2, hydrolytic derivatives of commercial dye C.I. reactive red 180 (reactive red 180 for short) and C.I. direct red 227 for comparison.
(§2) Use an ink-jet printer (Epson 270 manufactured by Epson Company), glossy photo paper (Epson) and the above described ink compositions for ink-jet printing.
(3) Wet Resistance of the Printed Images
Place the printed images in the Constant Temperature and Humidity Chamber (manufactured by China Surui Company) at 50° C. and 90% RH for 168 h; judge the bleeding of the ink by bare eyes before and after the test and evaluate it in 3 grades based on the following benchmark: • No bleeding ∘ • Slight bleeding Δ • Notable bleeding x

[3] = Printed images light resistance test with xenon lamp; conditions: grade of color difference ΔE; ink with 6 portions dye on glossy photo paper; xenon lamp 0.36 W/m^2, 50 h, 60% RH, 24° C.
Description: as §1, §2
(1) Printed Images Light Resistance Test with Xenon Lamp
Irradiate the printed glossy photo paper manufactured by Canon and Epson with Xenon-lamp Weathering Test Chamber ZG-P (manufactured by China Surui Company) at 60% RH and 24° C. with illuminance of 0.36 W/m^2 for 50 h to test the color difference (ΔE) before and after the test. The color difference (ΔE) is calculated from the differences of values of L*, a*, b* before and after the test in the above described color measurement system (Unterlab) by the followings formula: ΔE=((difference of L*)^2+(difference of a*)^2+(difference of b*)^2)^1/2.
Three grades will be divided for the evaluation based on the following benchmark: • ΔE<10 ∘ • ΔE<20 Δ • ΔE>20 x

[4] = Evaluation of solubility and solution stability; parameters: key: No precipitation ∘; Slight precipitation Δ; Notable x; conditions: 20 portions dye, 70 portions water, 10 portions ethylene glycol; 50° C. 7 d, then 0° C. 7 d; precipitation on filtering
Experimental: (D) Evaluation of Solubility and Solution Stability
Heat and dissolve the system of 20 portions of dyes, 70 portions of water and 10 portions of ethylene glycol; after the solution cools down, store it airtight at a constant temperature of 50° C. for 7 d; cool it down and store it at 0° C. for 7 d; filter the solution and evaluate it in 3 grades based on the following benchmark: • No precipitation ∘ • Slight precipitation Δ • Notable x

Structure (SMILES)	Ozone resistance of printed images [1]	Water resistance of printed images [2]	UV resistance of printed images [3]	Solubility and stability of dyes in aqueous solvent system [4]
CC(=O)Nc1cc(Nc2cc(S(=O)(=O)O)c3[nH]c(=O)c(C(=O)c4cccc(S(=O)(=O)O)c4)c4c3c2C(=O)c2ccccc2-4)c(S(=O)(=O)O)cc1S(=O)(=O)O [Dye C5]	∘ (ΔE<10 ∘)	∘	∘ (ΔE<10 ∘)	∘
O=C(c1cccc(S(=O)(=O)O)c1)c1c2c3c(c(Nc4cc(S(=O)(=O)CCSCCCS(=O)(=O)O)c(S(=O)(=O)O)cc4S(=O)(=O)O)cc(S(=O)(=O)O)c3[nH]c1=O)C(=O)c1ccccc1-2 [Dye B3]	∘ (ΔE<10 ∘)	∘	∘ (ΔE<10 ∘)	∘
O=C(c1cccc(S(=O)(=O)O)c1)c1c2c3c(c(Nc4cc(S(=O)(=O)CCSCCCS(=O)(=O)O)ccc4S(=O)(=O)O)cc(S(=O)(=O)O)c3[nH]c1=O)C(=O)c1ccccc1-2 [Dye B1]	∘ (ΔE<10 ∘)	∘	∘ (ΔE<10 ∘)	∘
CCN(CC)CCS(=O)(=O)c1ccc(S(=O)(=O)O)c(Nc2cc(S(=O)(=O)O)c3[nH]c(=O)c(C(=O)c4cccc(S(=O)(=O)O)c4)c4c3c2C(=O)c2ccccc2-4)c1 [Dye B2]	∘ (ΔE<10 ∘)	∘	∘ (ΔE<10 ∘)	∘
O=C(O)c1cc(Oc2nc(Nc3cc(Nc4cc(S(=O)(=O)O)c5[nH]c(=O)c(C(=O)c6cccc(S(=O)(=O)O)c6)c6c5c4C(=O)c4ccccc4-6)c(S(=O)(=O)O)cc3S(=O)(=O)O)nc(Oc3cc(C(=O)O)cc(C(=O)O)c3)n2)cc(C(=O)O)c1 [Dye D1]	∘ (ΔE<10 ∘)	∘	∘ (ΔE<10 ∘)	∘
O=C(O)c1cc(Oc2nc(Nc3cc(Nc4cc(S(=O)(=O)O)c5[nH]c(=O)c(C(=O)c6cccc(S(=O)(=O)O)c6)c6c5c4C(=O)c4ccccc4-6)c(S(=O)(=O)O)cc3S(=O)(=O)O)nc(N(CCO)CCO)n2)cc(C(=O)O)c1 [Dye D2]	∘ (ΔE<10 ∘)	∘	∘ (ΔE<10 ∘)	∘
O=S(=O)([O-])c1cc(Nc2nc(Nc3ccc(/C=C/c4ccc(Nc5nc(Nc6cc(S(=O)(=O)[O-])cc7cc(S(=O)(=O)[O-])c(N=Nc8ccccc8)c(O)c67)nc(N6CCOCC6)n5)cc4S(=O)(=O)[O-])c(S(=O)(=O)[O-])c3)nc(N3CCOCC3)n2)c2c(O)c(N=Nc3ccccc3)c(S(=O)(=O)[O-])cc2c1.[Na+].[Na+].[Na+].[Na+].[Na+].[Na+] [C.I. direct red 227, reference compound]	x (ΔE>20 x)	Δ	x (ΔE>20 x)	Δ
CN(c1nc(Oc2cc(C(=O)O)cc(C(=O)O)c2)nc(N(CCO)CCO)n1)c1cc(S(=O)(=O)O)c(Nc2cc(S(=O)(=O)O)c3[nH]c(=O)c(C(=O)c4cccc(S(=O)(=O)O)c4)c4c3c2C(=O)c2ccccc2-4)cc1S(=O)(=O)O [Dye D3]	Δ (ΔE<20 Δ)	∘	∘ (ΔE<10 ∘)	∘
Cc1ccc(S(=O)(=O)Nc2cc(Nc3cc(S(=O)(=O)O)c4[nH]c(=O)c(C(=O)c5cccc(S(=O)(=O)O)c5)c5c4c3C(=O)c3ccccc3-5)c(S(=O)(=O)O)cc2S(=O)(=O)O)cc1 [Dye D4]	Δ (ΔE<20 Δ)	∘	∘ (ΔE<10 ∘)	Δ
CC(=O)Nc1cc(Nc2ccc3[nH]c(=O)c(C(=O)c4cccc(S(=O)(=O)O)c4)c4c3c2C(=O)c2ccccc2-4)c(S(=O)(=O)O)cc1S(=O)(=O)O [Dye2, reference compound]	Δ (ΔE<20 Δ)	∘	Δ (ΔE<20 Δ)	Δ
CCN(CC)CCS(=O)(=O)c1ccc(S(=O)(=O)O)c(Nc2ccc3[nH]c(=O)c(C(=O)c4cccc(S(=O)(=O)O)c4)c4c3c2C(=O)c2ccccc2-4)c1 [Dye1, reference compound]	Δ (ΔE<20 Δ)	∘	Δ (ΔE<20 Δ)	Δ
CCN(CC)CCS(=O)(=O)c1cc(Nc2cc(S(=O)(=O)O)c3[nH]c(=O)c(C(=O)c4cccc(S(=O)(=O)O)c4)c4c3c2C(=O)c2ccccc2-4)c(S(=O)(=O)O)cc1S(=O)(=O)O [Dye B4]	∘ (ΔE<10 ∘)	∘	∘ (ΔE<10 ∘)	∘
O=C(c1cccc(S(=O)(=O)O)c1)c1c2c3c(c(Nc4ccc(S(=O)(=O)O)cc4S(=O)(=O)O)cc(S(=O)(=O)O)c3[nH]c1=O)C(=O)c1ccccc1-2 [Dye C1]	∘ (ΔE<10 ∘)	∘	∘ (ΔE<10 ∘)	∘
